Test results published in PubChem BioAssay AID1845216 (Molecular Pharmacology Branch, DTP, NCI, 2023).

Test system: SW 982 tumor spheroid viability
Test: Anticancer human tumor SW 982 cell line growth inhibition;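 further: spheroids exposed to compound for 7 days before readout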
Conditions: spheroids with HUVEC and MSC; for IC50: curve of first compound; for viability, T/C: stronger effect = lower value
Summary of the method: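 Complex tumor spheroids combined malignant cells with endothelial cells and mesenchymal stem cells. DNA-damaging drugs and DNA repair inhibitors were tested alone and in combination, at half-log dilutions down from clinical Cmax (top 10 microM if Cmax unknown), 0.25% DMSO final.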

SMILES: Cn1ncnc1[C@H]1c2n[nH]c(=O)c3cc(F)cc(c23)N[C@@H]1c1ccc(F)cc1 + COc1cc2c(cc1O)CCNC21CSC2c3c(OC(C)=O)c(C)c4c(c3C(COC1=O)N1C(O)C3Cc5cc(C)c(OC)c(O)c5C(C21)N3C)OCO4
- IC50 (second compound 30 pM): > 3000 nM
- IC50 (second compound 94.9 pM): 2740 nM
- IC50 (second compound 0.0003 µM): 1830 nM
- IC50 (second compound 0.000949 µM): < 9.49 nM
- IC50 (second compound 0.003 µM): < 9.49 nM
- viability, T/C (second compound 30 pM, first compound 0.00949 µM): 93.6%
- viability, T/C (second compound 30 pM, first compound 0.03 µM): 89.1%
- viability, T/C (second compound 30 pM, first compound 0.0949 µM): 85.9%
- viability, T/C (second compound 30 pM, first compound 0.3 µM): 85%
- viability, T/C (second compound 30 pM, first compound 0.949 µM): 76.3%
- viability, T/C (second compound 30 pM, first compound 3 µM): 52.6%
- viability, T/C (second compound 94.9 pM, first compound 0.00949 µM): 80.7%
- viability, T/C (second compound 94.9 pM, first compound 0.03 µM): 85.3%
- viability, T/C (second compound 94.9 pM, first compound 0.0949 µM): 82%
- viability, T/C (second compound 94.9 pM, first compound 0.3 µM): 82%
- viability, T/C (second compound 94.9 pM, first compound 0.949 µM): 66.3%
- viability, T/C (second compound 94.9 pM, first compound 3 µM): 48.6%
- viability, T/C (second compound 0.0003 µM, first compound 0.00949 µM): 76%
- viability, T/C (second compound 0.0003 µM, first compound 0.03 µM): 73.5%
- viability, T/C (second compound 0.0003 µM, first compound 0.0949 µM): 70%
- viability, T/C (second compound 0.0003 µM, first compound 0.3 µM): 76.1%
- viability, T/C (second compound 0.0003 µM, first compound 0.949 µM): 54.6%
- viability, T/C (second compound 0.0003 µM, first compound 3 µM): 46.6%
- viability, T/C (second compound 0.000949 µM, first compound 0.00949 µM): 32.3%
- viability, T/C (second compound 0.000949 µM, first compound 0.03 µM): 28.7%
- viability, T/C (second compound 0.000949 µM, first compound 0.0949 µM): 25.2%
- viability, T/C (second compound 0.000949 µM, first compound 0.3 µM): 27%
- viability, T/C (second compound 0.000949 µM, first compound 0.949 µM): 14.8%
- viability, T/C (second compound 0.000949 µM, first compound 3 µM): 2.84%
- viability, T/C (second compound 0.003 µM, first compound 0.00949 µM): 0.32%
- viability, T/C (second compound 0.003 µM, first compound 0.03 µM): 0.45%
- viability, T/C (second compound 0.003 µM, first compound 0.0949 µM): 0.37%
- viability, T/C (second compound 0.003 µM, first compound 0.3 µM): 0.38%
- viability, T/C (second compound 0.003 µM, first compound 0.949 µM): 0.36%
- viability, T/C (second compound 0.003 µM, first compound 3 µM): 0.91%
